Target: TrkA (Homo sapiens, UniProt P04629)
Experiment: TrkA LanthaScreen Eu Kinase Binding Assay
Parameters: 6HIS tagged cytoplasmic domain from Invitrogen, Cat. No. PV3144; purchased Invitrogen PV3144
Conditions: averaged IC50 values, read-out: TrkA Enzyme IC50
Procedure: TrkA binding activity was determined in a TrkA LanthaScreen™ Eu Kinase Binding Assay. 5 nM His-tagged recombinant human TrkA (6HIS tagged cytoplasmic domain from Invitrogen, Cat. No. PV3144) was incubated with 4 nM Alexa-Fluor® Tracer 236 (Invitrogen Cat. No. PV5592), 2 nM biotinylated anti-His (Invitrogen Cat. No. PV6090), and 2 nM europium-labeled Streptavidin (Invitrogen Cat. No. PV5899), in buffer (25 mM MOPS, pH 7.5, 5 mM MgCl2, 0.005% Triton X-100). Three fold serial dilutions of compounds of the invention in DMSO were added to a final percentage of 2% DMSO. After 60-minute incubation at 22° C., the reaction was measured using the EnVision mutlimode plate reader (PerkinElmer) via TR-FRET dual wavelength detection at […]. The percent of control was calculated using a ratiometric emission factor. The IC50 values were determined by fitting a four parameter model to the percent of control data.
Table A provides averaged IC50 values for compounds of the invention when tested in the assay of Example A, where A represents an averaged IC50 value <100 nM; and B represents an averaged IC50 value from 100 to 1,000 nM.

TrkA, sequence (P04629 440-796 limits assumed): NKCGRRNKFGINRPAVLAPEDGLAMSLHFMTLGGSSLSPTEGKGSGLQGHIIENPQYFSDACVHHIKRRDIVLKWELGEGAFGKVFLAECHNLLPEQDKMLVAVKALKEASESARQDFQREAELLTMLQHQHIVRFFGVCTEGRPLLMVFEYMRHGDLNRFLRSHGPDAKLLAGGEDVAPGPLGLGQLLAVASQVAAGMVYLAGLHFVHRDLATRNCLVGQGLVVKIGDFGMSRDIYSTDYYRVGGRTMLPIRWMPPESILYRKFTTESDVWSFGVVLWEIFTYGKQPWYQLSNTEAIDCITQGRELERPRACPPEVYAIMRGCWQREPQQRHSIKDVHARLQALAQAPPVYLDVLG

IC50 [nM] | SMILES
< 100 | COCCN1C[C@@H](NC(=O)Nc2cccnc2-c2ccccc2)[C@H](c2ccccc2)C1 (relative stereo) [Example 1, 1-(trans-1-(2-methoxyethyl)-4-phenylpyrrolidin-3-yl)-3-(2-phenylpyridin-3-yl)urea]
< 100 | COCCN1C[C@@H](NC(=O)Nc2cc(Cl)cnc2-c2ccccc2)[C@H](c2ccccc2)C1 (relative stereo) [Example 2, 1-(5-chloro-2-phenylpyridin-3-yl)-3-(trans-1-(2-methoxyethyl)-4-phenylpyrrolidin-3-yl)urea]
< 100 | COCCN1C[C@@H](NC(=O)Nc2cc(Br)cnc2-c2ccccc2)[C@H](c2ccccc2)C1 (relative stereo) [Example 3]
100 to 1000 | COCCN1C[C@@H](NC(=O)Nc2cc(S(C)(=O)=O)cnc2-c2ccccc2)[C@H](c2ccccc2)C1 (relative stereo) [Example 4, 1-(trans-1-(2-methoxyethyl)-4-phenylpyrrolidin-3-yl)-3-(5-(methylsulfonyl)-2-phenylpyridin-3-yl)urea]
100 to 1000 | COCCN1C[C@@H](NC(=O)Nc2c(-c3ccccc3)noc2C)[C@H](c2ccccc2)C1 (relative stereo) [Example 37, 1-((trans)-1-(2-methoxyethyl)-4-phenylpyrrolidin-3-yl)-3-(5-methyl-3-phenylisoxazol-4-yl)urea]
< 100 | COCCN1C[C@@H](NC(=O)Nc2cc(Br)cnc2-c2ccccc2)[C@H](c2ccccc2)C1 [Example 5, 1-(5-bromo-2-phenylpyridin-3-yl)-3-((3S,4R)-1-(2-methoxyethyl)-4-phenylpyrrolidin-3-yl)urea]
< 100 | COCCN1C[C@@H](NC(=O)Nc2cc(Br)cnc2-c2ccccc2)[C@H](c2ccc(F)c(F)c2)C1 [Example 6, 1-(5-bromo-2-phenylpyridin-3-yl)-3-((3S,4R)-4-(3,4-difluorophenyl)-1-(2-methoxyethyl)pyrrolidin-3-yl)urea]
< 100 | COCCN1C[C@@H](NC(=O)Nc2cc(-c3ccccc3)cnc2-c2ccccc2)[C@H](c2ccccc2)C1 [Example 7, 1-(2,5-diphenylpyridin-3-yl)-3-((3S,4R)-1-(2-methoxyethyl)-4-phenylpyrrolidin-3-yl)urea]
100 to 1000 | COCCN1C[C@@H](NC(=O)Nc2ccc(-c3ccccc3)nc2C)[C@H](c2ccccc2)C1 [Example 8, 1-((3S,4R)-1-(2-methoxyethyl)-4-phenylpyrrolidin-3-yl)-3-(2-methyl-6-phenylpyridin-3-yl)urea]
100 to 1000 | COCCN1C[C@@H](NC(=O)Nc2ccc(-c3ccccc3)nc2C)[C@H](c2ccc(F)c(F)c2)C1 [Example 9, 1-((3S,4R)-4-(3,4-difluorophenyl)-1-(2-methoxyethyl)pyrrolidin-3-yl)-3-(2-methyl-6-phenylpyridin-3-yl)urea]
100 to 1000 | COCCN1C[C@@H](NC(=O)Nc2cc(-c3ccccc3)cnc2C)[C@H](c2ccc(F)c(F)c2)C1 [Example 10, 1-((3S,4R)-4-(3,4-difluorophenyl)-1-(2-methoxyethyl)pyrrolidin-3-yl)-3-(2-methyl-5-phenylpyridin-3-yl)urea]
< 100 | COCCN1C[C@@H](NC(=O)Nc2ccc(Br)nc2-c2ccccc2)[C@H](c2ccc(F)c(F)c2)C1 [Example 11, 1-(6-bromo-2-phenylpyridin-3-yl)-3-((3S,4R)-4-(3,4-difluorophenyl)-1-(2-methoxyethyl)pyrrolidin-3-yl)urea]
< 100 | COCCN1C[C@@H](NC(=O)Nc2ccc(S(C)(=O)=O)nc2-c2ccccc2)[C@H](c2ccc(F)c(F)c2)C1 [Example 12, 1-((3S,4R)-4-(3,4-difluorophenyl)-1-(2-methoxyethyl)pyrrolidin-3-yl)-3-(6-(methylsulfonyl)-2-phenylpyridin-3-yl)urea]
< 100 | COCCN1C[C@@H](NC(=O)Nc2cc(S(C)(=O)=O)cnc2-c2ccccc2)[C@H](c2ccc(F)c(F)c2)C1 [Example 13, 1-((3S,4R)-4-(3,4-difluorophenyl)-1-(2-methoxyethyl)pyrrolidin-3-yl)-3-(5-(methylsulfonyl)-2-phenylpyridin-3-yl)urea]
< 100 | COCCN1C[C@@H](NC(=O)Nc2ccc(-c3cccnc3)nc2C)[C@H](c2ccc(F)c(F)c2)C1 [Example 14, 1-((3S,4R)-4-(3,4-difluorophenyl)-1-(2-methoxyethyl)pyrrolidin-3-yl)-3-(6-methyl-[2,3′-bipyridin]-5-yl)urea]
100 to 1000 | COCCN1C[C@@H](NC(=O)Nc2cc(-c3cccnc3)cnc2C)[C@H](c2ccc(F)c(F)c2)C1 [Example 15, 1-((3S,4R)-4-(3,4-difluorophenyl)-1-(2-methoxyethyl)pyrrolidin-3-yl)-3-(6-methyl-[3,3′-bipyridin]-5-yl)urea]

IC50 [nM] | SMILES
< 100 | COCCN1C[C@@H](NC(=O)Nc2ccc(OC)nc2-c2ccccc2)[C@H](c2ccc(F)c(F)c2)C1 [Example 16, 1-((3S,4R)-4-(3,4-difluorophenyl)-1-(2-methoxyethyl)pyrrolidin-3-yl)-3-(6-methoxy-2-phenylpyridin-3-yl)urea]
100 to 1000 | COCCN1C[C@@H](NC(=O)Nc2ccc(-c3ccc(S(C)(=O)=O)cc3)nc2C)[C@H](c2ccc(F)c(F)c2)C1 [Example 17, 1-((3S,4R)-4-(3,4-difluorophenyl)-1-(2-methoxyethyl)pyrrolidin-3-yl)-3-(2-methyl-6-(4-(methylsulfonyl)phenyl)pyridin-3-yl)urea]
100 to 1000 | COCCN1C[C@@H](NC(=O)Nc2ccc(-c3cccc(S(C)(=O)=O)c3)nc2C)[C@H](c2ccc(F)c(F)c2)C1 [Example 18, 1-((3S,4R)-4-(3,4-difluorophenyl)-1-(2-methoxyethyl)pyrrolidin-3-yl)-3-(2-methyl-6-(3-(methylsulfonyl)phenyl)pyridin-3-yl)urea]
< 100 | COCCN1C[C@@H](NC(=O)Nc2cccnc2-c2ccccc2)[C@H](c2ccc(F)c(F)c2)C1 [Example 19, 1-((3S,4R)-4-(3,4-difluorophenyl)-1-(2-methoxyethyl)pyrrolidin-3-yl)-3-(2-phenylpyridin-3-yl)urea]
< 100 | COCCN1C[C@@H](NC(=O)Nc2ccc(=O)[nH]c2-c2ccccc2)[C@H](c2ccc(F)c(F)c2)C1 [Example 20, 1-((3S,4R)-4-(3,4-difluorophenyl)-1-(2-methoxyethyl)pyrrolidin-3-yl)-3-(6-oxo-2-phenyl-1,6-dihydropyridin-3-yl)urea]
< 100 | COCCN1C[C@@H](NC(=O)Nc2ccc(Cl)nc2-c2ccccc2)[C@H](c2ccc(F)c(F)c2)C1 [Example 21, 1-(6-chloro-2-phenylpyridin-3-yl)-3-((3S,4R)-4-(3,4-difluorophenyl)-1-(2-methoxyethyl)pyrrolidin-3-yl)urea]
< 100 | COCCN1C[C@@H](NC(=O)Nc2ccc(S(=O)(=O)C3CC3)nc2-c2ccccc2)[C@H](c2ccc(F)c(F)c2)C1 [Example 22, 1-(6-(cyclopropylsulfonyl)-2-phenylpyridin-3-yl)-3-((3S,4R)-4-(3,4-difluorophenyl)-1-(2-methoxyethyl)pyrrolidin-3-yl)urea]
< 100 | COCCN1C[C@@H](NC(=O)Nc2cncnc2-c2ccccc2)[C@H](c2ccc(F)c(F)c2)C1 [Example 23, 1-((3S,4R)-4-(3,4-difluorophenyl)-1-(2-methoxyethyl)pyrrolidin-3-yl)-3-(4-phenylpyrimidin-5-yl)urea]
< 100 | COCCN1C[C@@H](NC(=O)Nc2ccc(C#N)nc2-c2ccccc2)[C@H](c2ccc(F)c(F)c2)C1 [Example 24, 1-(6-cyano-2-phenylpyridin-3-yl)-3-((3S,4R)-4-(3,4-difluorophenyl)-1-(2-methoxyethyl)pyrrolidin-3-yl)urea]
< 100 | CCOc1ccc(NC(=O)N[C@@H]2CN(CCOC)C[C@H]2c2ccc(F)c(F)c2)c(-c2ccccc2)n1 [Example 25]
< 100 | COCCN1C[C@@H](NC(=O)Nc2cc(OC)cnc2-c2ccccc2)[C@H](c2ccc(F)c(F)c2)C1 [Example 26, 1-((3S,4R)-4-(3,4-difluorophenyl)-1-(2-methoxyethyl)pyrrolidin-3-yl)-3-(5-methoxy-2-phenylpyridin-3-yl)urea]
< 100 | COCCOc1ccc(NC(=O)N[C@@H]2CN(CCOC)C[C@H]2c2ccc(F)c(F)c2)c(-c2ccccc2)n1 [Example 27, 1-((3S,4R)-4-(3,4-difluorophenyl)-1-(2-methoxyethyl)pyrrolidin-3-yl)-3-(6-(2-methoxyethoxy)-2-phenylpyridin-3-yl)urea]
< 100 | CCc1ccc(NC(=O)N[C@@H]2CN(CCOC)C[C@H]2c2ccc(F)c(F)c2)c(-c2ccccc2)n1 [Example 28, 1-((3S,4R)-4-(3,4-difluorophenyl)-1-(2-methoxyethyl)pyrrolidin-3-yl)-3-(6-ethyl-2-phenylpyridin-3-yl)urea]
< 100 | COCCN1C[C@@H](NC(=O)Nc2ccc(C)nc2-c2ccccc2)[C@H](c2ccc(F)c(F)c2)C1 [Example 29, 1-((3S,4R)-4-(3,4-difluorophenyl)-1-(2-methoxyethyl)pyrrolidin-3-yl)-3-(6-methyl-2-phenylpyridin-3-yl)urea]
< 100 | COCCN1C[C@@H](NC(=O)Nc2cc(C)cnc2-c2ccccc2)[C@H](c2ccc(F)c(F)c2)C1 [Example 30, 1-((3S,4R)-4-(3,4-difluorophenyl)-1-(2-methoxyethyl)pyrrolidin-3-yl)-3-(5-methyl-2-phenylpyridin-3-yl)urea]

Reference: US9828360B2 (Array BioPharma Inc., priority 2012, dated 2017)
